Source: patent US6387431B1, “Dicarboalkoxy dioxolanes as flavoring agent releasing compounds” (Givaudan SA, priority 2000, dated 2002)

Columns and labels:
[1] = Stability (decomposition) in a still lemon beverage, hexane extraction and GC; type: physicochemical; settings: for half life t½: 100 ppm, over 5 days, first order kinetic assumed
Protocol: The stability of compound 1 of Example 1 was tested in a still lemon beverage prepared by 1+5 dilution of lemon/lime-lemon beverage concentrate (210 g) with water ([…]). Formula of the lemon/lime-lemon beverage concentrate used: [table] Three 100 ml solutions containing each 100 ppm of the compound 1 were prepared and the decomposition of 1 was determined over a period of 5 days by extraction of 5 ml test solutions samples with hexane, spiked with 100 ppm of ethyl myristate. The extracts were analyzed by GC (Hewlett Packard 6890; column: DB-5, 30 m, 0.32 mm i.d.) and for each data point a mean value based on three measurements was calculated.

[2] = aqueous solutions and acidic aqueous alcoholic and non-alcoholic beverages; cited from earlier work

Structure (SMILES)	half life t½ [1] [h]	hydrolysis [2]	also measured
CC(C)=CCCC(C)=CC1O[C@@H](C(=O)OC(C)C)[C@H](C(=O)OC(C)C)O1 (mixture of isomers) [compound 1, (E/Z)-(4R,5R)-2-(2,6-Dimethyl-hepta-1,5-dienyl)-[1,3]dioxolane-4,5-dicarboxylic acid diisopropylester]	96	–	–
CCOC(=O)[C@@H]1OC(C=C(C)CCC=C(C)C)O[C@H]1C(=O)OCC (mixture of isomers) [compound 3, (E/Z)-(4R,5R)-2-(2,6-Dimethyl-hepta-1,5-dienyl)-[1,3]dioxolane-4,5-dicarboxylic acid diethylester]	–	–	half life ([1]; determined as in Example 6): 21 h
CCCOC(=O)[C@@H]1OC(C=C(C)CCC=C(C)C)O[C@H]1C(=O)OCCC (mixture of isomers) [compound 5, (E/Z)-(4R,5R)-2-(2,6-Dimethyl-hepta-1,5-dienyl)-[1,3]dioxolane-4,5-dicarboxylic acid dipropylester]	264	–	–
COC(C=C(C)CCC=C(C)C)OC [citral dimethyl acetal]	–	rapidly hydrolized	–
CC(C)=CCC/C(C)=C/C1OCC(C)O1 (centres unmarked) [citral propylene glycol acetal]	–	rapidly hydrolized	–
